Legend:
[1] = 101 kPa, Liquid, Vibrating tube method
[2] = xn = mol fraction of the nth substance listed; conditions: 101 kPa, Liquid, Vibrating tube method, x2 = 0

NCCO [2-aminoethan-1-ol]
[1]
Conditions | mass density [kg/m3]
293.16 K | 1016.34
303.14 K | 1008.4
313.14 K | 1000.41
323.15 K | 992.384
333.14 K | 984.302
343.14 K | 976.141
353.14 K | 967.893
363.15 K | 959.536

CN(CCO)CCO [N-methyldiethanolamine]
[1]
Conditions | mass density [kg/m3]
293.15 K | 1040.6
303.15 K | 1033.02
313.15 K | 1025.4
323.15 K | 1017.74
333.15 K | 1010.03
343.15 K | 1002.25
353.14 K | 994.404
363.15 K | 986.471

OCCNCCO [diethanolamine]
[1]
Conditions | mass density [kg/m3]
293.15 K | 1097.61
303.15 K | 1091.17
313.15 K | 1084.6
323.15 K | 1077.88
333.14 K | 1071.11
343.14 K | 1064.25
353.14 K | 1057.31
363.15 K | 1050.24

C[S+](C)[O-] [dimethyl sulfoxide]
[1]
Conditions | mass density [kg/m3]
293.14 K | 1100.87
303.15 K | 1090.81
313.14 K | 1080.77
323.14 K | 1070.73
333.15 K | 1060.68
343.14 K | 1050.62
353.14 K | 1040.54
363.15 K | 1030.43

C[S+](C)[O-] [dimethyl sulfoxide] + CN(CCO)CCO
[2]
Conditions | mass density [kg/m3]
293.14 K | 1100.87
303.15 K | 1090.81
313.14 K | 1080.77
323.14 K | 1070.73
333.15 K | 1060.68
343.14 K | 1050.62
353.14 K | 1040.54
363.15 K | 1030.43

C[S+](C)[O-] [dimethyl sulfoxide] + NCCO
[2]
Conditions | mass density [kg/m3]
293.14 K | 1100.87
303.15 K | 1090.81
313.14 K | 1080.77
323.14 K | 1070.73
333.15 K | 1060.68
343.14 K | 1050.62
353.14 K | 1040.54
363.15 K | 1030.43

C[S+](C)[O-] [dimethyl sulfoxide] + OCCNCCO
[2]
Conditions | mass density [kg/m3]
293.14 K | 1100.87
303.15 K | 1090.81
313.14 K | 1080.77
323.14 K | 1070.73
333.15 K | 1060.68
343.14 K | 1050.62
353.14 K | 1040.54
363.15 K | 1030.43
